According to BigSolDB 2.1:

COP(=O)(NC(C)=O)SC (stereo unspecified)
Details	solubility (mole fraction)
in acetone, 299.45 K	0.068
in acetone, 302.6 K	0.0811
in acetone, 305.2 K	0.0923
in acetone, 306.4 K	0.0986
in acetone, 309.8 K	0.119
in acetone, 311.4 K	0.131
in acetone, 313.75 K	0.149
in acetone, 315.8 K	0.167
in dichloromethane, 292.9 K	0.176
in dichloromethane, 295.2 K	0.19
in dichloromethane, 297.3 K	0.203
in dichloromethane, 298.45 K	0.21
in dichloromethane, 299.6 K	0.217
in dichloromethane, 301.05 K	0.226
in dichloromethane, 302.3 K	0.233
in dichloromethane, 303.25 K	0.241
in ethyl acetate, 307.9 K	0.035
in ethyl acetate, 310.75 K	0.0408
in ethyl acetate, 314.2 K	0.049
in ethyl acetate, 318.4 K	0.0648
in ethyl acetate, 321.55 K	0.0779
in ethyl acetate, 324.95 K	0.0965
in ethyl acetate, 327.6 K	0.118
in isopropanol, 299.3 K	0.0606
in isopropanol, 303.95 K	0.0773
in isopropanol, 306.7 K	0.0925
in isopropanol, 310.75 K	0.118
in isopropanol, 313.35 K	0.137
in isopropanol, 316.45 K	0.163
in isopropanol, 319.45 K	0.193
in isopropanol, 322 K	0.224
